How the values were obtained:
[1] = tested on: Klebsiella pneumoniae meropenem-sensitive strain; assay: resistance/sensitivity test directly on MALDI-TOF MS sample support, meropenem-sensitive strain; assay type: cell-based
Text: The antibiotic (for example an antibiotic solution in a liquid nutrient medium) can be mixed with a microorganism suspension either in a cultivation vessel or directly on a spot of a MALDI-TOF MS support 12 (hatched droplet 14*). In addition, this is generally accompanied by a growth control on a different section of the MALDI-TOF MS support, i.e. a cultivation of the microorganism suspension in a nutrient medium without the addition of an antibiotic (unhatched droplet 14). It is preferable for a very small quantity of the suspension to be applied to the spots; for example 1-10 microliters. The sensitivity test thus takes place in microdroplets 14, 14*, preferably with a volume of around 4-8 microliters. The use of even smaller volumes is also possible in principle, for example in the form of nanodroplets. […]
In the example shown, the MALDI-TOF MS support 12 with the test solution is subsequently cultured in a so-called “humidity chamber” 16 in an incubator at high humidity. […] A small quantity of liquid can be put in the humidity chamber 16, for example 0.1 to 5 milliliters of water or NaCl solution to humidify the atmosphere in the chamber 16 and thus set a high ambient humidity (nearly 100%) so that the evaporation of the droplets of nutrient medium 14, 14* themselves is prevented. […]

[2] = tested on: Klebsiella pneumoniae meropenem-resistant strain; assay: resistance/sensitivity test directly on MALDI-TOF MS sample support, meropenem-resistant strain; assay type: cell-based
Text: The antibiotic (for example an antibiotic solution in a liquid nutrient medium) can be mixed with a microorganism suspension either in a cultivation vessel or directly on a spot of a MALDI-TOF MS support 12 (hatched droplet 14*). In addition, this is generally accompanied by a growth control on a different section of the MALDI-TOF MS support, i.e. a cultivation of the microorganism suspension in a nutrient medium without the addition of an antibiotic (unhatched droplet 14). It is preferable for a very small quantity of the suspension to be applied to the spots; for example 1-10 microliters. The sensitivity test thus takes place in microdroplets 14, 14*, preferably with a volume of around 4-8 microliters. The use of even smaller volumes is also possible in principle, for example in the form of nanodroplets. The initial microorganism concentration in the droplets 14, 14* can be slightly below the detection limit of a conventional MALDI time-of-flight mass spectrometer with linear flight path, and thus amount to around 5×10^5 cfu per milliliter, for example (cfu—colony forming unit). FIG. 3A.
In the example shown, the MALDI-TOF MS support 12 with the test solution is subsequently cultured in a so-called “humidity chamber” 16 in an incubator at high humidity. The purpose of the humidity chamber 16 is to prevent the droplets 14, 14* from evaporating prematurely during the incubation, and it can take the form of a box with a lid, made of plastic, for example, into which the MALDI-TOF MS support can easily be placed. […] A small quantity of liquid can be put in the humidity chamber 16, for example 0.1 to 5 milliliters of water or NaCl solution to humidify the atmosphere in the chamber 16 and thus set a high ambient humidity (nearly 100%) so that the evaporation of the droplets of nutrient medium 14, 14* themselves is prevented. FIG. 3B.
In the droplets 14, 14*, a high concentration of the microorganisms in a small volume of liquid is rapidly achieved during incubation (as long as the growth is not inhibited by antimicrobial substances). […]

[3] = 2 micrograms per milliliter, 6 microliter droplet, four hours incubation, MALDI Biotyper evaluation

C[C@@H](O)[C@H]1C(=O)N2C(C(=O)O)=C(S[C@@H]3CN[C@H](C(=O)N(C)C)C3)[C@H](C)[C@H]12 [meropenem]
bacterial growth in the presence of meropenem (specific mass signal signatures vs growth control) [1, 3]: cannot multiply (or scarcely)
relative growth ([1]; droplet sizes 2, 4, 6, 8 and 10 microliters, significant growth threshold 0.4, FIG. 4B): < 0.4
bacterial growth in the presence of meropenem (specific mass signal signatures vs growth control) [2, 3]: not inhibited
relative growth, median ([2]; 4 microliter droplet, measurements occasionally below threshold, FIG. 4B): greater than 0.4
relative growth ([2]; droplet sizes 2, 6, 8 and 10 microliters, significant growth threshold 0.4, FIG. 4B): greater than 0.4

Source: patent US12031989B2, “Preparing live microbial samples and microorganisms for subsequent mass spectrometric measurement and evaluation” (Bruker Daltonics GmbH & Co. KG, priority 2016, dated 2024)
